Experimental data as given in ChEMBL document CHEMBL5543109, “Novel β-Hairpin Antimicrobial Peptide Containing the β-Turn Sequence of -NG- and the Tryptophan Zippers Facilitate Self-Assembly into Nanofibers, Exhibiting Excellent Antimicrobial Performance” (J Med Chem, 2024).
In brackets after ≈: the same amount, converted by molar mass. Activity calls are given as the source filed them. The rule behind the calls is not given here.

What was measured:
Staphylococcus aureus [1] = experiment: Antibacterial activity against Staphylococcus aureus 794 infected in BALB/c mouse skin wound infection model assessed as wound healing at 1 mg/ml, ip pre-infected with bacteria for 24 hrs followed by compound addition and measured on day 11; type: functional; conditions: time 11 day
Bacillus subtilis = experiment: Bactericidal activity against Bacillus subtilis ATCC 23857 incubated for 18 hrs by broth microdilution method; type: functional
Staphylococcus aureus [2] = experiment: Synergistic antibacterial activity against Staphylococcus aureus 125 assessed as fractional inhibitory concentration index incubated for 18 hrs in presence of bacitracin by checkerboard assay; type: functional
Staphylococcus aureus [3] = experiment: Antibacterial activity against Staphylococcus aureus 794 infected in BALB/c mouse skin wound infection model assessed as wound healing at 1 mg/ml, ip pre-infected with bacteria for 24 hrs followed by compound addition and measured on day 4; type: functional, organism-based; conditions: time 4.0 day
Staphylococcus aureus [4] = experiment: Antibacterial activity against rifampicin resistant Staphylococcus aureus incubated for 18 hrs by broth microdilution method; type: functional
Staphylococcus aureus [5] = experiment: Antibacterial activity against Staphylococcus aureus incubated for 18 hrs in presence of ZnCl2 by broth microdilution method; type: functional, organism-based
Cell membrane [6] = experiment: Induction of outer membrane permeabilization in Escherichia coli at 4 times MIC measured immediately by NPN-dye based assay; type: cell membranes
Staphylococcus aureus [7] = experiment: Antibacterial activity against Staphylococcus aureus 794 infected in BALB/c mouse skin wound infection model assessed as reduction in wound bacterial load at 1 mg/ml, ip administered at 1 hr interval for total 6 treatment and measured after 1 hr post last dose in presence of vancomycin; type: functional, organism-based; conditions: time 7.0 hrs
Staphylococcus aureus [8] = experiment: Additive antibacterial activity against Staphylococcus aureus assessed as fractional inhibitory concentration index incubated for 18 hrs in presence of polymyxin B by checkerboard assay; type: functional
[9] = Toxicity in BALB/c mouse infected with Staphylococcus aureus 794 assessed as cell necrosis at 1 mg/ml, ip pre-infected with bacteria for 24 hrs followed by compound addition and measured after 13 days in presence of vancomycin by H and E staining based histopathological analysis; type: organism-based; conditions: in vivo, 312 h, time 13 day
Staphylococcus aureus [10] = experiment: Antibacterial activity against Staphylococcus aureus incubated for 18 hrs by broth microdilution method; type: functional
Staphylococcus aureus [11] = experiment: Additive antibacterial activity against methicillin resistant Staphylococcus aureus assessed as fractional inhibitory concentration index incubated for 18 hrs in presence of ciprofloxacin by checkerboard assay; type: functional
Staphylococcus aureus [12] = experiment: Antibacterial activity against Staphylococcus aureus incubated for 18 hrs in presence of KCl by broth microdilution method; type: functional, organism-based
Staphylococcus aureus [13] = experiment: Antibacterial activity against Staphylococcus aureus at 2 times MIC preincubated for 1 hr with trypsin followed by enzyme inactivation and bacterial addition and measured after 18 hrs; type: functional; conditions: time 19 hrs
Staphylococcus aureus [14] = experiment: Additive antibacterial activity against Staphylococcus aureus 794 assessed as fractional inhibitory concentration index incubated for 18 hrs in presence of streptomycin by checkerboard assay; type: functional
Staphylococcus aureus [15] = experiment: Induction of morphological change in Staphylococcus aureus assessed as bacterial lysis at 2 times MIC incubated for 30 mins by SEM analysis; type: functional, organism-based
Pseudomonas aeruginosa [16] = experiment: Antibacterial activity against Pseudomonas aeruginosa ATCC 27853 incubated for 18 hrs by broth microdilution method; type: functional
Escherichia coli [17] = experiment: Synergistic antibacterial activity against Escherichia coli assessed as fractional inhibitory concentration index incubated for 18 hrs in presence of rifampin by checkerboard assay; type: functional
Staphylococcus aureus [18] = experiment: Antibacterial activity against Staphylococcus aureus at 2 times MIC preincubated for 1 hr with chymotrypsin followed by enzyme inactivation and bacterial addition and measured after 18 hrs; type: functional; conditions: time 19 hrs
Staphylococcus aureus [19] = experiment: Induction of morphological change in Staphylococcus aureus assessed as bacterial collapse at 2 times MIC incubated for 30 mins by SEM analysis; type: functional, organism-based
[20] = Self-assembly property of compound in PBS assessed as beta-sheet nanofibers formation incubated for 1 hr by Thioflavin T based fluorescence spectrophotometer analysis; type: physicochemical; conditions: buffer, dose 0.5-1.5 µM
Staphylococcus aureus [21] = experiment: Additive antibacterial activity against methicillin resistant Staphylococcus aureus 113 assessed as fractional inhibitory concentration index incubated for 18 hrs in presence of streptomycin by checkerboard assay; type: functional
[22] = Self-assembly property of compound in PBS assessed as critical aggregation concentration incubated for 48 hrs; type: physicochemical; conditions: buffer
Escherichia coli [23] = experiment: Additive antibacterial activity against rifampicin resistant Escherichia coli assessed as fractional inhibitory concentration index incubated for 18 hrs in presence of rifampin by checkerboard assay; type: functional
Cell membrane [24] = experiment: Induction of cell membrane disruption in Staphylococcus aureus assessed as PI uptake at 4 times MIC incubated for 2 hrs by PI staining based flow cytometry analysis (reference value: 15.9%); type: cell membranes
[25] = Self-assembly property of compound in water assessed as beta-sheet formation by measuring particle size at 50 uM by […]; type: physicochemical; conditions: buffer
Staphylococcus aureus [26] = experiment: Antibacterial activity against Staphylococcus aureus incubated for 18 hrs in presence of MgCl2 by broth microdilution method; type: functional, organism-based
Staphylococcus aureus [27] = experiment: Antibacterial activity against Staphylococcus aureus 794 infected in BALB/c mouse skin wound infection model assessed as reduction in wound area at 1 mg/ml, ip pre-infected with bacteria for 24 hrs followed by compound addition and measured on day 9 to 13; type: functional, organism-based; conditions: time 9-13 day
[28] = system: Staphylococcus epidermidis; experiment: Antibacterial activity against Staphylococcus epidermidis ATCC 12228 incubated for 18 hrs by broth microdilution method; type: functional
Staphylococcus aureus [29] = experiment: Antibacterial activity against Staphylococcus aureus ATCC 25923 infected in BALB/c mouse skin wound infection model assessed as reduction in wound bacterial load at 1 mg/ml, ip administered at 1 hr interval for total 6 treatment and measured after 1 hr post last dose; type: functional, organism-based; conditions: time 7.0 hrs
Staphylococcus aureus [30] = experiment: Additive antibacterial activity against Staphylococcus aureus 125 assessed as fractional inhibitory concentration index incubated for 18 hrs in presence of ciprofloxacin by checkerboard assay; type: functional
Pseudomonas aeruginosa [31] = experiment: Induction of morphological change in Pseudomonas aeruginosa assessed as bacterial swelling at 2 times MIC incubated for 30 mins by SEM analysis; type: functional, organism-based
Pseudomonas aeruginosa [32] = experiment: Antibacterial activity against Pseudomonas aeruginosa incubated for 18 hrs in presence of CaCl2 by broth microdilution method; type: functional, organism-based
Staphylococcus aureus [33] = experiment: Antibacterial activity against Staphylococcus aureus 794 infected in BALB/c mouse skin wound infection model assessed as reduction in wound bacterial load at 1 mg/ml, ip administered at 1 hr interval for total 6 treatment and measured after 1 hr post last dose; type: functional, organism-based; conditions: time 7.0 hrs
Staphylococcus aureus [34] = experiment: Antibacterial activity against Staphylococcus aureus 794 infected in BALB/c mouse skin wound infection model assessed as wound healing by measuring detached scab at 1 mg/ml, ip pre-infected with bacteria for 24 hrs followed by compound addition and measured on day 7; type: functional, organism-based; conditions: time 7.0 day
Staphylococcus aureus [35] = experiment: Additive antibacterial activity against Staphylococcus aureus 125 assessed as fractional inhibitory concentration index incubated for 18 hrs in presence of cefotaxime by checkerboard assay; type: functional
Escherichia coli [36] = experiment: Bactericidal activity against Escherichia coli ATCC 25922 incubated for 18 hrs by broth microdilution method; type: functional
Staphylococcus aureus [37] = experiment: Additive antibacterial activity against methicillin resistant Staphylococcus aureus 75 assessed as fractional inhibitory concentration index incubated for 18 hrs in presence of streptomycin by checkerboard assay; type: functional
[38] = Elimination half life in Sprague-Dawley rat at 1 mg/kg, iv measured upto 120 mins by LC-MS analysis; type: ADME, organism-based; conditions: in vivo, read-out: beta t1/2
Staphylococcus aureus [39] = experiment: Additive antibacterial activity against Staphylococcus aureus 125 assessed as fractional inhibitory concentration index incubated for 18 hrs in presence of kanamycin by checkerboard assay; type: functional

In the case of `NCCCC[C@@H](NC(=O)[C@H](N)Cc1c[nH]c2ccccc12)C(=O)N[C@H](Cc1c[nH]c2ccccc12)C(=O)N[C@H](CCCCN)C(=O)N[C@H](Cc1c[nH]c2ccccc12)C(=O)N[C@@H](CC(N)=O)C(=O)NCC(=O)N[C@H](Cc1c[nH]c2ccccc12)C(=O)N[C@H](CCCCN)C(=O)N[C@H](Cc1c[nH]c2ccccc12)C(=O)N[C@H](CCCCN)C(=O)N[C@H](Cc1c[nH]c2ccccc12)C(N)=O`, the Activity (Staphylococcus aureus [1]) is reported as 100%, the MBC (Bacillus subtilis) is reported as 4 µM (≈ 7.27 µg/mL) and the “fractional inhibitory concentration index (FICI)” value (Staphylococcus aureus [2]) is reported as 0.5. The Activity (Staphylococcus aureus [3]) was “inactive”, the MIC (Staphylococcus aureus [4]) was 8 µM (≈ 14.5 µg/mL) and the Activity (Staphylococcus aureus [5]) was “Active”. The Activity (Cell membrane [6]) was 100%, the Activity (Staphylococcus aureus [7]) was “Active” and the “fractional inhibitory concentration index (FICI)” value (Staphylococcus aureus [8]) was 1. For the same molecule, the Activity [9] was “Toxic”, the MIC (Staphylococcus aureus [10]) was 4 µM (≈ 7.27 µg/mL) and the “fractional inhibitory concentration index (FICI)” value (Staphylococcus aureus [11]) was 0.563. The Activity (Staphylococcus aureus [12]) was “Active”, the Activity (Staphylococcus aureus [13]) was 100% and the “fractional inhibitory concentration index (FICI)” value (Staphylococcus aureus [14]) was 0.625. For the same molecule, the Activity (Staphylococcus aureus [15]) was “Active”, the MIC (Pseudomonas aeruginosa [16]) was 4 µM (≈ 7.27 µg/mL) and the “fractional inhibitory concentration index (FICI)” value (Escherichia coli [17]) was 0.375. For the same molecule, the Activity (Staphylococcus aureus [18]) was 100%, the Activity (Staphylococcus aureus [19]) was “Active” and the Activity [20] was “Dose-Dependent Effect”. The “fractional inhibitory concentration index (FICI)” value (Staphylococcus aureus [21]) was 0.563, the CAC [22] was 7.78 µM and the “fractional inhibitory concentration index (FICI)” value (Escherichia coli [23]) was 0.563. For the same molecule, the Activity (Cell membrane [24]) was 95.5%, the Activity [25] was 126.5 nm and the Activity (Staphylococcus aureus [26]) was “Active”. For the same molecule, the Activity (Staphylococcus aureus [27]) was “Active”, the MIC [28] was 4 µM (≈ 7.27 µg/mL) and the Activity (Staphylococcus aureus [29]) was “Active”. The “fractional inhibitory concentration index (FICI)” value (Staphylococcus aureus [30]) was 1, the Activity (Pseudomonas aeruginosa [31]) was “Active” and the Activity (Pseudomonas aeruginosa [32]) was “Active”. The Activity (Staphylococcus aureus [33]) was “Active”, the Activity (Staphylococcus aureus [34]) was “Active” and the “fractional inhibitory concentration index (FICI)” value (Staphylococcus aureus [35]) was 0.75. For the same molecule, the MBC (Escherichia coli [36]) was 8 µM (≈ 14.5 µg/mL), the “fractional inhibitory concentration index (FICI)” value (Staphylococcus aureus [37]) was 0.75 and the half-life [38] was 11.4 min. For the same molecule, the “fractional inhibitory concentration index (FICI)” value (Staphylococcus aureus [39]) was 0.563.
